From ChEMBL document CHEMBL1857833, “Screening and optimization of specific chemical series against human African Trypanosomiasis (HAT)”
≈ marks a conversion by molar mass, not a printed value.

system: not listed separately; test: DNDI: Cytotoxicity against L929 mouse fibroblasts, 72 hour.; type: toxicity, cell-based; conditions: mouse, L929 mouse fibroblasts

Row | Structure (SMILES) | IC50 at 72 h [µg/mL]
1 | Cc1oc(-c2ccccc2F)nc1CNCCC1CCCN1C (stereo unspecified) | > 10
2 | Cc1ccc(CNC(c2nc(Cc3ccccc3)c(N3CCOCC3)o2)c2ccccc2C)cc1 (stereo unspecified) | > 10
3 | CCc1cccc(NS(=O)(=O)c2ccc(OC)cc2)c1 | 1.88 (≈ 6.45 µM)
4 | CCCCCC(C)NCc1nc(-c2ccc(OC)cc2)oc1C (stereo unspecified) | > 10
5 | CCCCCCCCOC(=O)Cc1coc(-c2ccc(CCCC)cc2)n1 | > 10
6 | CCCCCCCCCCOc1ccc(-c2nc(CN[C@@H]3C[C@@H]4C[C@H]([C@H]3C)C4(C)C)co2)cc1 | 7.22 (≈ 15.5 µM)
7 | CCC(C)C(NCc1ccc(OC)c(OC)c1)c1nc(Cc2ccccc2)c(N2CCCCC2)o1 (stereo unspecified) | > 10
8 | CCCCCCC/C(O)=C1\C(=O)NC(CC(C)C)C1=O (stereo unspecified) | > 10
9 | Cc1ccc(CNC(CC(C)C)c2nc(-c3ccccc3)c(N3CCOCC3)o2)cc1 (stereo unspecified) | > 10
10 | COc1ccc(/C(=N/O)Nc2cccc(C(C)(C)C)c2)cc1 | 3.91 (≈ 13.1 µM)
11 | COc1ccc(/C(=N/O)Nc2cccc(C)c2)cc1 | > 10

system: Trypanosoma brucei; test: DNDI: Inhibition of Human African Trypanosomiasis, SBRI 427, in vitro; type: functional, organism-based; conditions: not given

Row | IC50 [µg/mL] | Structure (SMILES)
12 | 1.3 (≈ 4.06 µM) | CN(Cc1coc(-c2cccc3ccccc23)n1)C1CCCCC1
13 | 1.69 (≈ 5.94 µM) | CC(C)(C)c1ccc(-c2nc(CNCC3CC3)co2)cc1

same assay, conditions: Trypanosoma brucei, SBRI 427; read-out: IC50

Row | IC50 [µg/mL] | Structure (SMILES)
14 | 1.47 (≈ 3.72 µM) | O/N=C(\NC1CCc2ccccc21)c1cccnc1Oc1ccc2ccccc2c1 (stereo unspecified)
15 | 0.96 (≈ 2.58 µM) | CSc1ccc(Oc2nc(C)ccc2/C(=N/O)NC2CCCC2)cc1C
16 | > 5 | CC1CCC(N/C(=N\O)c2ccnc(Oc3cccc4cccnc34)c2)CC1 (stereo unspecified)
17 | 2.15 (≈ 6.05 µM) | COc1cccc(Oc2ccc(/C(=N/O)NCC3CCCCC3)cn2)c1
18 | 2.81 (≈ 7.13 µM) | O/N=C(\NCC1CCCCC1)c1ccc(Oc2cc(Cl)ccc2Cl)nc1
19 | 2.99 (≈ 8.71 µM) | CSc1ccccc1Oc1ncccc1/C(=N/O)NC1CCCC1
20 | 5 (≈ 15.1 µM) | O/N=C(\NC1CCCC1)c1ccnc(Oc2ccc(Cl)cc2)c1
21 | > 5 | C=CCc1ccc(Oc2cc(/C(=N/O)NCc3ccc(OC)cc3)ccn2)c(OC)c1
22 | > 5 | O/N=C(/c1ccnc(Oc2cccc3c2CCCC3)c1)N1CCSCC1
23 | 2.64 (≈ 7.28 µM) | CC(C)c1cccc(Oc2ccc(/C(=N/O)NCc3ccncc3)cn2)c1
24 | 0.36 (≈ 1.1 µM) | Cc1ccc(Oc2cc(/C(=N/O)NCC(C)(C)C)ccn2)c(C)c1
25 | 1.96 (≈ 5.51 µM) | COc1ccc(Oc2ncccc2/C(=N/O)NCC2CCCCC2)cc1
26 | 1.77 (≈ 5.18 µM) | COCCN/C(=N\O)c1cccnc1Oc1ccc(C)c2c1CCC2
27 | 3.79 (≈ 9.23 µM) | O/N=C(\NCc1cccnc1)c1ccc(Oc2ccc3oc4ccccc4c3c2)nc1
28 | 37.5 (≈ 105 µM) | Cc1ccc(/C(=N/O)NCCN2CCCC2)c(Oc2ccc(F)cc2)n1
29 | 3.73 (≈ 10.9 µM) | COc1ccc(Oc2cc(/C(=N/O)NC3CCCCC3)ccn2)cc1
30 | 6.96 (≈ 21.4 µM) | Cc1ccc(Oc2nc(C)ccc2/C(=N/O)NC2CCCC2)cc1
31 | > 5 | O/N=C(\NC1CCCCC1)c1ccnc(Oc2ccc(F)c(F)c2)c1
32 | 1.24 (≈ 3.65 µM) | Cc1cccc(Oc2nc(C)ccc2/C(=N/O)NC2CCCCC2)c1
33 | 1.97 (≈ 5.54 µM) | COc1cccc(Oc2ccc(/C(=N/O)NC3CCC(C)CC3)cn2)c1 (stereo unspecified)

Row | IC50 [µg/mL] | Structure (SMILES)
34 | 1.33 (≈ 3.9 µM) | COc1ccc(Oc2nc(C)ccc2/C(=N/O)NC2CCCC2)cc1
35 | 2.19 (≈ 6.9 µM) | CC(C)(C)CN/C(=N\O)c1ccnc(Oc2cccc(F)c2)c1
36 | 2.73 (≈ 7.76 µM) | CC(C)(C)CN/C(=N\O)c1ccnc(Oc2ccc(F)c(Cl)c2)c1
37 | 1.24 (≈ 3.21 µM) | O/N=C(/c1ccc(Oc2ccc(Cl)cc2)nc1)N1CCC2CCCCC2C1 (stereo unspecified)
38 | 0.45 (≈ 1.3 µM) | COCC(C)N/C(=N\O)c1ccnc(Oc2ccc(SC)cc2)c1 (stereo unspecified)
39 | 0.53 (≈ 1.57 µM) | O/N=C(\NCC1CC1)c1ccc(Oc2cccc3c2CCCC3)nc1
40 | 0.45 (≈ 1.36 µM) | Cc1ccc(/C(=N/O)NCC(C)(C)C)c(Oc2cccc(F)c2)n1
41 | 1.37 (≈ 4.32 µM) | Cc1ccc(/C(=N/O)NCC(C)C)c(Oc2cccc(F)c2)n1
42 | > 5 | COc1ccc(Oc2cc(/C(=N/O)NCC(C)C)ccn2)cc1
43 | 36.6 (≈ 102 µM) | O/N=C(\NC1CC1)c1ccc(Oc2ccc3oc4ccccc4c3c2)nc1
44 | > 5 | COCC(C)N/C(=N\O)c1ccc(Oc2ccc3ccccc3c2)nc1 (stereo unspecified)
45 | 0.59 (≈ 1.5 µM) | O/N=C(\NCC1CCCCC1)c1cccnc1Oc1ccc(-n2cncn2)cc1
46 | 0.61 (≈ 2.05 µM) | O/N=C(\NCC1CC1)c1cccnc1OCc1ccccc1
47 | 0.54 (≈ 1.36 µM) | O/N=C(/c1cccnc1Oc1ccc(F)cc1Cl)N1CCCc2ccccc21
48 | 0.86 (≈ 2.46 µM) | CCC(C)(C)N/C(=N\O)c1ccc(Oc2cccc3ccccc23)nc1
49 | 2.1 (≈ 5.38 µM) | C=CCc1ccc(Oc2ccc(/C(=N/O)NCc3ccncc3)cn2)c(OC)c1
50 | 0.37 (≈ 1.19 µM) | CCc1ccc(Oc2ccc(/C(=N/O)NCC3CC3)cn2)cc1
51 | 1.3 (≈ 3.42 µM) | O/N=C(\NC1CCCCC1)c1ccc(Oc2cc(Cl)ccc2Cl)nc1
52 | 3.8 (≈ 10.3 µM) | O/N=C(\NC1CCCC1)c1ccc(Oc2c(F)c(F)cc(F)c2F)nc1
53 | 4.06 (≈ 10.6 µM) | O/N=C(\NC1CCCCC1)c1ccc(Oc2c(F)c(F)cc(F)c2F)nc1

More lines, now with the values behind:

Row | Structure (SMILES) | IC50 [µg/mL]
54 | Cc1oc(-c2ccccc2F)nc1CNCCC1CCCN1C (stereo unspecified) | > 5
55 | Cc1ccc(CNC(c2nc(Cc3ccccc3)c(N3CCOCC3)o2)c2ccccc2C)cc1 (stereo unspecified) | > 5
56 | CCc1cccc(NS(=O)(=O)c2ccc(OC)cc2)c1 | > 5
57 | CCCCCC(C)NCc1nc(-c2ccc(OC)cc2)oc1C (stereo unspecified) | 1.49 (≈ 4.71 µM)
58 | CCCCCCCCOC(=O)Cc1coc(-c2ccc(CCCC)cc2)n1 | > 5
59 | CCCCCCCCCCOc1ccc(-c2nc(CN[C@@H]3C[C@@H]4C[C@H]([C@H]3C)C4(C)C)co2)cc1 | > 5
60 | CCC(C)C(NCc1ccc(OC)c(OC)c1)c1nc(Cc2ccccc2)c(N2CCCCC2)o1 (stereo unspecified) | > 5
61 | CCCCCCC/C(O)=C1\C(=O)NC(CC(C)C)C1=O (stereo unspecified) | > 5
62 | Cc1ccc(CNC(CC(C)C)c2nc(-c3ccccc3)c(N3CCOCC3)o2)cc1 (stereo unspecified) | 4.22 (≈ 10.1 µM)
63 | CN(Cc1coc(-c2cccc3ccccc23)n1)C1CCCCC1 | 2.01 (≈ 6.27 µM)
64 | CC(C)N/C(=N\O)c1cccnc1OCC(C)(C)C | 0.9 (≈ 3.39 µM)
65 | CCC(CC)N/C(=N\O)c1cccnc1Oc1ccccc1F | 0.43 (≈ 1.35 µM)
66 | C[C@H]1C(NCc2coc(-c3ccc(O)cc3)n2)C[C@@H]2C[C@H]1C2(C)C (stereo partly specified) | 1.36 (≈ 4.17 µM)
67 | Cc1cc(C)cc(CN/C(=N\O)c2cccnc2OCc2ccccc2F)c1 | 1.96 (≈ 5.17 µM)
68 | CCC(CC)N/C(=N\O)c1ccc(C)nc1Oc1cccc(F)c1 | 1.56 (≈ 4.71 µM)
69 | CCOc1ccccc1-c1nc(CNC(C)C(C)(C)C)co1 (stereo unspecified) | 2.12 (≈ 7.01 µM)
70 | Cc1ccc(/C(=N/O)NCC(C)(C)C)c(OCc2cccc(F)c2)n1 | 2.11 (≈ 6.11 µM)
71 | CC(C)c1cccc(Oc2cc(/C(=N/O)N3CCN(c4ccccc4)CC3)ccn2)c1 | 2.91 (≈ 6.99 µM)
72 | CC(C)(C)c1ccc(-c2nc(CNCC3CC3)co2)cc1 | 1.22 (≈ 4.29 µM)

Row | Structure (SMILES) | IC50 [µg/mL]
73 | CCC(CC)N/C(=N\O)c1ccnc(Oc2ccc(OC)cc2)c1 | 3.65 (≈ 11.1 µM)
74 | c1ccc2c(-c3nc(CNCCCN4CCCC4)co3)cccc2c1 | 0.62 (≈ 1.85 µM)
75 | Cc1ccc(-c2nc(CNC34C[C@H]5C[C@@H](C3)C[C@@H](C4)C5)co2)cc1 | 3.86 (≈ 12 µM)
76 | COc1cc(C)ccc1Oc1nc(C)ccc1/C(=N/O)NCc1ccccc1 | 0.77 (≈ 2.04 µM)
77 | O/N=C(\NCc1ccccc1)c1cccnc1Oc1ccc(F)cc1Cl | 0.62 (≈ 1.67 µM)
78 | CC1CCc2ccccc2N1/C(=N\O)c1cccnc1OCC(C)(C)C (stereo unspecified) | 0.66 (≈ 1.87 µM)
79 | CC(C)COc1ncccc1/C(=N/O)NC1CCC1 | 1.41 (≈ 5.35 µM)
80 | Cc1cccc(Oc2nc(C)ccc2/C(=N/O)NCC(C)C)c1 | 1.67 (≈ 5.33 µM)
81 | CCOc1ccccc1-c1nc(CNC(C)C2CCCCC2)co1 (stereo unspecified) | 1.94 (≈ 5.91 µM)
82 | CCOc1ccccc1CN/C(=N\O)c1cccnc1Oc1ccc(OC)cc1 | 1.44 (≈ 3.66 µM)
83 | Cc1ccc(/C(=N/O)NCc2ccccc2F)c(Oc2cc(Cl)ccc2Cl)n1 | > 5
84 | CCC(CC)N/C(=N\O)c1cccnc1Oc1ccc(F)cc1 | 1.32 (≈ 4.16 µM)
85 | COCCN/C(=N\O)c1ccc(C)nc1Oc1ccc(SC)c(C)c1 | > 5
86 | CCOc1ccccc1CN/C(=N\O)c1cccnc1Oc1cc(Cl)ccc1Cl | 0.66 (≈ 1.53 µM)
87 | COc1cccc(-c2nc(Cn3ccnc3C=O)co2)c1 | > 5
88 | CCC(CC)N/C(=N\O)c1cccnc1OCc1ccccc1 | 0.51 (≈ 1.63 µM)
89 | Cc1ccc(Oc2ncccc2/C(=N/O)NCc2c(F)cccc2F)cc1 | 1.75 (≈ 4.74 µM)
90 | COCC(C)N/C(=N\O)c1ccnc(Oc2ccc(Cl)cc2)c1 (stereo unspecified) | 0.36 (≈ 1.07 µM)
91 | CC(C)c1ccc(Oc2ncccc2/C(=N/O)NCc2c(F)cccc2F)cc1 | > 5
